Laboratory results published in PubChem BioAssay AID1963967 (Molecular Pharmacology Branch, DTP, NCI, 2024).
pIC50: −log10 of the molar value.

Test system: 855422-203-R-J1-PDC spheroids with HUVEC/MSC, viability
Test: Anticancer human tumor 855422-203-R-J1-PDC patient-derived bladder carcinoma cell line growth inhibition [PI3K]
Conditions: for viability, T/C: stronger effect = lower value; for IC50: curve of compound; for pIC50: curve of first compound; active = viability on the fitted dose curve at most 10% of control; inactive = the rest
How it was run: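 Targeted small molecules plus PI3K inhibitors, half-log dose series from Cmax (default top 10 microM), were applied to heterotypic spheroids of cancer cells with HUVEC and MSCs. Viability indicated growth inhibition.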

[1] = second compound 0.0316 µM, first compound 0.0316 µM
[2] = second compound 0.0316 µM, first compound 0.1 µM
[3] = second compound 0.0316 µM, first compound 0.316 µM
[4] = second compound 0.0316 µM, first compound 1 µM
[5] = second compound 0.0316 µM, first compound 3.16 µM
[6] = second compound 0.0316 µM, first compound 10 µM
[7] = second compound 0.1 µM, first compound 0.0316 µM
[8] = second compound 0.1 µM, first compound 0.1 µM
[9] = second compound 0.1 µM, first compound 0.316 µM
[10] = second compound 0.1 µM, first compound 1 µM
[11] = second compound 0.1 µM, first compound 3.16 µM
[12] = second compound 0.1 µM, first compound 10 µM
[13] = second compound 0.316 µM, first compound 0.0316 µM
[14] = second compound 0.316 µM, first compound 0.1 µM
[15] = second compound 0.316 µM, first compound 0.316 µM
[16] = second compound 0.316 µM, first compound 1 µM
[17] = second compound 0.316 µM, first compound 3.16 µM
[18] = second compound 0.316 µM, first compound 10 µM
[19] = second compound 1 µM, first compound 0.0316 µM
[20] = second compound 1 µM, first compound 0.1 µM
[21] = second compound 1 µM, first compound 0.316 µM
[22] = second compound 1 µM, first compound 1 µM
[23] = second compound 1 µM, first compound 3.16 µM
[24] = second compound 1 µM, first compound 10 µM
[25] = second compound 3.16 µM, first compound 0.0316 µM
[26] = second compound 3.16 µM, first compound 0.1 µM
[27] = second compound 3.16 µM, first compound 0.316 µM
[28] = second compound 3.16 µM, first compound 1 µM
[29] = second compound 3.16 µM, first compound 3.16 µM
[30] = second compound 3.16 µM, first compound 10 µM
[31] = second compound 10 µM, first compound 0.0316 µM
[32] = second compound 10 µM, first compound 0.1 µM
[33] = second compound 10 µM, first compound 0.316 µM
[34] = second compound 10 µM, first compound 1 µM
[35] = second compound 10 µM, first compound 3.16 µM
[36] = second compound 10 µM, first compound 10 µM
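Also: agents incubated with spheroids for one week before read-out.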
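For viability, T/C in this document: 100% = DMSO vehicle-treated control wells.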

Cn1nccc1Nc1nccc(-c2ccn(C(CO)c3ccc(Cl)c(F)c3)c(=O)c2)n1 (configuration not stated)
8.75 µM [middle of 4 runs]: IC50
inactive: viability, T/C (compound 0.0316 µM) 112% [middle of 4 runs] | viability, T/C (compound 0.1 µM) 99.8% [middle of 4 runs] | viability, T/C (compound 0.316 µM) 108% [middle of 4 runs] | viability, T/C (compound 1 µM) 90.7% [middle of 4 runs] | viability, T/C (compound 3.16 µM) 93.1% [middle of 4 runs] | viability, T/C (compound 10 µM) 44% [middle of 4 runs]

CC(C)NCC(C(=O)N1CCN(c2ncnc3c2C(C)CC3O)CC1)c1ccc(Cl)cc1 (configuration not stated) + CC(Nc1ncnc2nc[nH]c12)c1cc2cccc(Cl)c2c(=O)n1-c1ccccc1
5.89: pIC50 (second compound 3.16 µM)
5.95: pIC50 (second compound 0.1 µM) | pIC50 (second compound 0.316 µM) | pIC50 (second compound 1 µM)
5.94: pIC50 (second compound 0.0316 µM)
inactive: viability, T/C [1] 114% | viability, T/C [2] 83.2% | viability, T/C [3] 83.9% | viability, T/C [4] 46.1% | viability, T/C [5] 34.5% | viability, T/C [6] 16.8% | viability, T/C [7] 103% | viability, T/C [8] 88.2% | viability, T/C [9] 70% | viability, T/C [10] 51.4% | viability, T/C [11] 34.9% | viability, T/C [12] 19% | viability, T/C [13] 101% | viability, T/C [14] 90.4% | viability, T/C [15] 75.5% | viability, T/C [16] 51.7% | viability, T/C [17] 31.9% | viability, T/C [18] 18.8% | viability, T/C [19] 88.6% | viability, T/C [20] 93% | viability, T/C [21] 81.3% | viability, T/C [22] 50.1% | viability, T/C [23] 32.8% | viability, T/C [24] 19.5% | viability, T/C [25] 88.4% | viability, T/C [26] 81.8% | viability, T/C [27] 73.1% | viability, T/C [28] 47.6% | viability, T/C [29] 40% | viability, T/C [30] 16.3% | viability, T/C [31] 85.3% | viability, T/C [32] 81.9% | viability, T/C [33] 69.8% | viability, T/C [34] 47.1% | viability, T/C [35] 30.1% | viability, T/C [36] 15.2%
6.03: pIC50 (second compound 10 µM)

CC1(C)CCC(CN2CCN(c3ccc(C(=O)NS(=O)(=O)c4ccc(NCC5CCOCC5)c([N+](=O)[O-])c4)c(Oc4cnc5[nH]ccc5c4)c3)CC2)=C(c2ccc(Cl)cc2)C1 + CC(Nc1ncnc2nc[nH]c12)c1cc2cccc(Cl)c2c(=O)n1-c1ccccc1
active: viability, T/C [6] 2.05% | viability, T/C [12] 1.83% | viability, T/C [18] 2.05% | viability, T/C [24] 2.34% | viability, T/C [30] 2.02% | viability, T/C [36] 2.02%
inactive: viability, T/C [1] 118% | viability, T/C [2] 88.3% | viability, T/C [3] 114% | viability, T/C [4] 105% | viability, T/C [5] 81.1% | viability, T/C [7] 92% | viability, T/C [8] 101% | viability, T/C [9] 111% | viability, T/C [10] 117% | viability, T/C [11] 78.8% | viability, T/C [13] 104% | viability, T/C [14] 107% | viability, T/C [15] 105% | viability, T/C [16] 106% | viability, T/C [17] 84.2% | viability, T/C [19] 95.6% | viability, T/C [20] 106% | viability, T/C [21] 103% | viability, T/C [22] 98.4% | viability, T/C [23] 82.5% | viability, T/C [25] 99.9% | viability, T/C [26] 96.9% | viability, T/C [27] 104% | viability, T/C [28] 97.9% | viability, T/C [29] 83.9% | viability, T/C [31] 97.2% | viability, T/C [32] 79.9% | viability, T/C [33] 103% | viability, T/C [34] 89.1% | viability, T/C [35] 85.6%
5.29: pIC50 (second compound 0.316 µM) | pIC50 (second compound 3.16 µM) | pIC50 (second compound 10 µM)
5.31: pIC50 (second compound 0.1 µM)
5.30: pIC50 (second compound 0.0316 µM) | pIC50 (second compound 1 µM)

Cn1nccc1Nc1nccc(-c2ccn(C(CO)c3ccc(Cl)c(F)c3)c(=O)c2)n1 (configuration not stated) + CC(Nc1ncnc2nc[nH]c12)c1cc2cccc(Cl)c2c(=O)n1-c1ccccc1
5.07: pIC50 (second compound 0.316 µM)
5.06: pIC50 (second compound 0.0316 µM)
5.00: pIC50 (second compound 0.1 µM)
5.40: pIC50 (second compound 10 µM)
5.13: pIC50 (second compound 3.16 µM)
5.05: pIC50 (second compound 1 µM)
inactive: viability, T/C [1] 113% | viability, T/C [2] 94.6% | viability, T/C [3] 116% | viability, T/C [4] 98.2% | viability, T/C [5] 91% | viability, T/C [6] 44.3% | viability, T/C [7] 107% | viability, T/C [8] 98.9% | viability, T/C [9] 109% | viability, T/C [10] 101% | viability, T/C [11] 92.7% | viability, T/C [12] 49.5% | viability, T/C [13] 111% | viability, T/C [14] 98.7% | viability, T/C [15] 105% | viability, T/C [16] 106% | viability, T/C [17] 90% | viability, T/C [18] 43.5% | viability, T/C [19] 107% | viability, T/C [20] 112% | viability, T/C [21] 107% | viability, T/C [22] 103% | viability, T/C [23] 88.1% | viability, T/C [24] 45.7% | viability, T/C [25] 100% | viability, T/C [26] 107% | viability, T/C [27] 107% | viability, T/C [28] 103% | viability, T/C [29] 84.4% | viability, T/C [30] 38.2% | viability, T/C [31] 88.5% | viability, T/C [32] 81.3% | viability, T/C [33] 87.4% | viability, T/C [34] 80% | viability, T/C [35] 56.5% | viability, T/C [36] 25.1%

C#Cc1c(F)ccc2cc(O)cc(-c3ncc4c(N5CC6CCC(C5)N6)nc(OCC56CCCN5CC(F)C6)nc4c3F)c12 (configuration not stated) + CC(Nc1ccc2c(c1)OCCn1cc(N3C(=O)OCC3C(F)F)nc1-2)C(N)=O
inactive: viability, T/C (second compound 0.00316 µM, first compound 0.0316 µM) 94.4% | viability, T/C (second compound 0.00316 µM, first compound 0.1 µM) 85.1% | viability, T/C (second compound 0.00316 µM, first compound 0.316 µM) 109% | viability, T/C (second compound 0.00316 µM, first compound 1 µM) 89.2% | viability, T/C (second compound 0.00316 µM, first compound 3.16 µM) 107% | viability, T/C (second compound 0.00316 µM, first compound 10 µM) 110% | viability, T/C (second compound 0.01 µM, first compound 0.0316 µM) 106% | viability, T/C (second compound 0.01 µM, first compound 0.1 µM) 93% | viability, T/C (second compound 0.01 µM, first compound 0.316 µM) 96.6% | viability, T/C (second compound 0.01 µM, first compound 1 µM) 98.2% | viability, T/C (second compound 0.01 µM, first compound 3.16 µM) 110% | viability, T/C (second compound 0.01 µM, first compound 10 µM) 116% | viability, T/C [1] 82.4% | viability, T/C [2] 87.8% | viability, T/C [3] 89.9% | viability, T/C [4] 92.4% | viability, T/C [5] 105% | viability, T/C [6] 92.9% | viability, T/C [7] 71.7% | viability, T/C [8] 69.8% | viability, T/C [9] 58.7% | viability, T/C [10] 82.8% | viability, T/C [11] 77.8% | viability, T/C [12] 73.6% | viability, T/C [13] 55.5% | viability, T/C [14] 55.3% | viability, T/C [15] 44.7% | viability, T/C [16] 54.6% | viability, T/C [17] 53.9% | viability, T/C [18] 29.1% | viability, T/C [19] 38.7% | viability, T/C [20] 31.5% | viability, T/C [21] 35.1% | viability, T/C [22] 32.8% | viability, T/C [23] 29.4% | viability, T/C [24] 17.6%
< 5.00: pIC50 (second compound 0.00316 µM) | pIC50 (second compound 0.01 µM) | pIC50 (second compound 0.0316 µM) | pIC50 (second compound 0.1 µM)
> 7.50: pIC50 (second compound 1 µM)
5.44: pIC50 (second compound 0.316 µM)

CC(C)n1nc(-c2ccc3oc(N)nc3c2)c2c(N)ncnc21
55.3 nM [middle of 4 runs]: IC50
inactive: viability, T/C (compound 0.000316 µM) 113% [middle of 4 runs] | viability, T/C (compound 0.001 µM) 93.4% [middle of 4 runs] | viability, T/C (compound 0.00316 µM) 113% [middle of 4 runs] | viability, T/C (compound 0.01 µM) 91.1% [middle of 4 runs] | viability, T/C (compound 0.0316 µM) 80.6% [middle of 4 runs] | viability, T/C (compound 0.1 µM) 17.8% [middle of 4 runs]
